Assay results reported in patent publication US6028222A (priority 1996, dated 2000).
Like-named read-outs stand apart in the source and are kept apart here.

Key:
[1] = Stabilization of dilute paracetamol solution by free radical scavengers (formulation B and C); type: physicochemical; conditions: 124° C. 7 minutes, 48 hours room temperature dark
Method: (§1) The solutions thus prepared were divided in 10 ml, 100 ml or 80 ml capacity vials, stoppered with a Bromobutyl stopper and capped with an aluminium cap. The preparation was examined for any pink color development.

[2] = Stabilization of dilute paracetamol + codein phosphate solution by free radical scavengers; type: physicochemical; conditions: 48 hours
Method: The solutions thus prepared were divided in 10 ml capacity vials, stoppered with a Bromobutyl stopper and capped with an aluminium cap. […] The preparation was examined for any change in color.

[3] = Stabilization of concentrated paracetamol solution by free radical scavengers; type: physicochemical; conditions: for Appearance upon exposure to light, color intensity: 48 hours actinic light; for Appearance at 70° C., color intensity: 48 hours, dark
Method: The solutions thus prepared are divided in 10 ml capacity vials, stoppered with a Bromobutyl stopper and capped with an aluminium cap. After autoclaving at 121° C. for 20 minutes, the vials were stored for 48 hours, either in the presence of actinic light at 5500° K. at room temperature or at 70° C. in the dark. The preparation was examined for any change in color.

[4] = type: physicochemical; conditions: 48 hours
[5] = Stabilization of dilute paracetamol solution by free radical scavengers (formula A); type: physicochemical; conditions: 48 hours
Method: as §1
After autoclaving at 121° C. for 20 minutes, the vials were stored for 48 hours, either in the presence of actinic light at 5500° K. at room temperature or at 70° C. in the dark (formula A).

[6] = Solubility of paracetamol in dilute solutions (absorbance at 240 nm of filtrate); type: physicochemical
[7] = Paracetamol instability in solution and breakdown products; type: physicochemical; conditions: in water or in solution no 20
[8] = pH stability of concentrated paracetamol solution; type: physicochemical
Method: Vials that had been filled under nitrogen atmosphere by dispensing 10 ml of such solutions, tightly stoppered and capped, were sterilized by autoclaving at 121° C. for 20 minutes, and then in every case exposed, either to a temperature of 105° C. in the dark for 72 hours, or to a radiation of an actinic light at 5000° K. and 25° C. during 264 hours.

[9] = Predicted time to 5% decrease in paracetamol concentration (Arrhenius law); type: physicochemical; conditions: 25° C., optimal pH, aqueous solution; predicted by Arrhenius law
[10] = aqueous solution; cited from earlier work
[11] = cited from earlier work
[12] = HPLC assay of paracetamol and codein before and after autoclaving; conditions: for assay, after sterilization: 121° C. 20 minutes
[13] = containing 0.5 mg/ml of cystein hydrochloride
[14] = no free radical scavenger added

Structure (SMILES): CC(=O)N[C@@H](CS)C(=O)O [N-acetylcystein]
- Dosage of C.R.L. (in % of theoretical volume) ([1]; 0.2 mg/ml): 88%
- Solution appearance, color ([1]; 0.2 mg/ml): colorless
- Dosage of paracetamol (in % of theoretical volume) ([1]; C.R.L. 0.2 mg/ml): 99.2%
- color at 70° C. ([2]; 2.0 mg/ml): grey
- color upon exposure to light ([2]; 2.0 mg/ml): grey

Structure (SMILES): O=S([O-])OS(=O)[O-].[Na+].[Na+] [Sodium disulfite]
- Appearance upon exposure to light, color intensity ([3]; 0.295 mg/ml): colorless
- Appearance at 70° C., color intensity ([3]; 0.295 mg/ml): colorless
- color at 70° C. ([4]; 0.295 mg/ml): yellow
- color upon exposure to light ([4]; 0.295 mg/ml): yellow
- color at 70° C. ([2]; 0.295 mg/ml): colorless
- color upon exposure to light ([2]; 0.295 mg/ml): colorless

Structure (SMILES): N[C@@H](CCC(=O)N[C@@H](CS)C(=O)NCC(=O)O)C(=O)O [Reduced glutathion]
- Appearance upon exposure to light, color intensity ([3]; 1 mg/ml): colorless
- Appearance at 70° C., color intensity ([3]; 1 mg/ml): colorless
- Appearance upon exposure to light, color intensity ([3]; 8 mg/ml): colorless
- Appearance at 70° C., color intensity ([3]; 8 mg/ml): colorless
- color at 70° C. ([5]; 1 mg/ml): colorless
- color upon exposure to light ([5]; 1 mg/ml): colorless
- color at 70° C. ([2]; 2.0 mg/ml): colorless
- color upon exposure to light ([2]; 2.0 mg/ml): colorless

Structure (SMILES): Cl.N[C@@H](CS)C(=O)O [Cystein hydrochloride]
- Appearance upon exposure to light, color intensity ([3]; 1 mg/ml): cloudy
- Appearance at 70° C., color intensity ([3]; 1 mg/ml): cloudy
- color at 70° C. ([5]; 0.05 mg/ml): colorless
- color upon exposure to light ([5]; 0.05 mg/ml): colorless
- color at 70° C. ([5]; 0.1 mg/ml): colorless
- color upon exposure to light ([5]; 0.1 mg/ml): colorless
- color at 70° C. ([5]; 0.25 mg/ml): colorless
- color upon exposure to light ([5]; 0.25 mg/ml): colorless
- color at 70° C. ([5]; 0.5 mg/ml): colorless
- color upon exposure to light ([5]; 0.5 mg/ml): colorless
- color at 70° C. ([5]; 0.75 mg/ml): colorless
- color upon exposure to light ([5]; 0.75 mg/ml): colorless
- color at 70° C. ([5]; 1 mg/ml): colorless
- color upon exposure to light ([5]; 1 mg/ml): colorless
- color at 70° C. ([5]; 2 mg/ml): colorless
- color upon exposure to light ([5]; 2 mg/ml): colorless
- color at 70° C. ([5]; 5 mg/ml): colorless
- color upon exposure to light ([5]; 5 mg/ml): colorless
- color at 70° C. ([2]; 0.05 mg/ml): pink
- color at 70° C. ([2]; 1.0 mg/ml): colorless
- color upon exposure to light ([2]; 1.0 mg/ml): colorless
- color at 70° C. ([2]; 2.0 mg/ml): colorless
- color upon exposure to light ([2]; 2.0 mg/ml): colorless
- color at 70° C. ([2]; 5.0 mg/ml): colorless
- color upon exposure to light ([2]; 5.0 mg/ml): colorless

Structure (SMILES): CC(=O)Nc1ccc(O)cc1 [paracetamol, N-acetyl-p-aminophenol]
- effect of PEG on paracetamol solubility [6]: increased by the presence of PEG
- time to color development ([7]; 50° C.): 2 weeks
- color upon exposure to light or storage at high temperature [7]: shows rapidly a pink color
- Color development upon storage in the presence of light ([8]; pH 7,0 (actual pH 5,8), actinic light, 264 hours): extremely weak
- effect of pH on paracetamol content and breakdown products ([8]; storage in the presence of light): Neither the paracetamol content, nor the breakdown products are affected by pH
- time needed to observe a 5% decrease in paracetamol concentration [9]: 19 months
- pH of minimal breakdown [10]: ~6
- p-aminophen content from hydrolysis, % of initial paracetamol concentration ([11]; 0.1% aqueous solution, dark, 120 days): ~19,8%
- ammonia yield with EDTA added ([11]; 1000 ppm of ascorbic acid + EDTA (0.0075%)): ≤ 14%
- ammonia yield upon exposure to bright light ([11]; 1000 ppm of ascorbic acid): 98%
- decomposition rate with EDTA ([11]; EDTA 0.0075%, 0.1% aqueous solution): 7%
- ammonia concentration on distilling an alkaline solution ([11]; in presence or not of 1000 ppm of ascorbic acid): 14%
- assay, non sterilized solution [12, 13]: 0.0082 g/mL
- assay, after sterilization [12, 13]: 0.0081 g/mL
- assay, non sterilized solution [12, 14]: 0.0078 g/mL
- assay, after sterilization [12, 14]: 0.0077 g/mL

Structure (SMILES): O[C@H](CS)[C@H](O)CS (racemic) [Dithiothreitol]
- Appearance upon exposure to light, color intensity ([3]; 1 mg/ml): colorless
- Appearance at 70° C., color intensity ([3]; 1 mg/ml): colorless
- color at 70° C. ([5]; 1 mg/ml): colorless
- color upon exposure to light ([5]; 1 mg/ml): colorless
- color at 70° C. ([4]; 1 mg/ml): violet pink
- color upon exposure to light ([4]; 1 mg/ml): violet pink
- color at 70° C. ([2]; 0.5 mg/ml): colorless
- color upon exposure to light ([2]; 0.5 mg/ml): colorless

Structure (SMILES): O=C1O[C@H]([C@@H](O)CO)C([O-])=C1O.[Na+] [Sodium ascorbate]
- Appearance upon exposure to light, color intensity ([3]; 1 mg/ml): yellow (+)
- Appearance at 70° C., color intensity ([3]; 1 mg/ml): yellow (+)
- color at 70° C. ([5]; 0.2 mg/ml): pink
- color upon exposure to light ([5]; 0.2 mg/ml): pink
- color at 70° C. ([5]; 0.4 mg/ml): yellow
- color upon exposure to light ([5]; 0.4 mg/ml): colorless
- color at 70° C. ([5]; 0.6 mg/ml): yellow
- color upon exposure to light ([5]; 0.6 mg/ml): pink
- color at 70° C. ([5]; 1 mg/ml): yellow
- color upon exposure to light ([5]; 1 mg/ml): colorless
- color at 70° C. ([4]; 1 mg/ml): yellow
- color upon exposure to light ([4]; 1 mg/ml): yellow

Structure (SMILES): OC[C@@H](O)[C@@H](O)[C@H](O)[C@H](O)CO [Mannitol]
- Appearance upon exposure to light, color intensity ([3]; 50 mg/ml): colorless
- Appearance at 70° C., color intensity ([3]; 50 mg/ml): colorless
- Solution appearance, color ([1]; 20 mg/ml): colorless
- Solution appearance, color ([1]; 40 mg/ml): colorless
- Solution appearance, color ([1]; 50 mg/ml): colorless
